We go through 35 molecules from patent US11827628B2, “Compositions and methods for inhibition of the JAK pathway” (Rigel Pharmaceuticals, Inc., priority 2005, dated 2023).

This assay concerns up-regulation of ICAM-1 (CD54) by IFNγ in U937 human monocytic cells. The assay can be described thus: U937 IFNγ ICAM1 FACS Assay. Type of assay: cell-based. Particulars: Homo sapiens, U-937, U937 cells stimulated with IFNγ, ICAM-1 expression by FACS; read-out: IC50, Example 44. An outline of the steps:
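Readout was the geometric-mean APC anti-ICAM-1 signal by FACS on live U937 monocytic cells, with % live cells also recorded. Cells were exposed to compounds (8 points, 3-fold dilutions, duplicates) for 30 min at 37 °C before 18–24 h of IFNγ stimulation. EC50 values were computed from the dose curve.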

Turning to `C#CCn1ccc2cc(Nc3nc(Nc4ccc(C)c(S(N)(=O)=O)c4)ncc3F)ccc21` [IX-1, N2-(3-Aminosulfonyl-4-methylphenyl)-5-fluoro-N4-[1-(propyn-3-yl)indol-5-yl]-2,4-pyrimidinediamine], the IC50 worked out at 1.13 µM. On to `C#CCn1ccc2cc(Nc3nc(Nc4cccc(S(N)(=O)=O)c4)ncc3F)ccc21` [IX-2, N2-(3-Aminosulfonylphenyl)-5-fluoro-N4-[1-(propyn-3-yl)indol-5-yl]-2,4-pyrimidinediamine], for which the IC50 was determined as 1.77 µM.

Consider `Cc1ccc(Nc2ncc(F)c(Nc3ccc4c(CC#N)c[nH]c4c3)n2)cc1S(N)(=O)=O` [IX-11, N2-(3-Aminosulfonyl-4-methylphenyl)-N4-(3-cyanomethyl-1H-indol-6-yl)-5-fluoro-2,4-pyrimidinediamine], for which the IC50 was determined as 2.24 µM.

For the molecule `N#CCc1c[nH]c2cc(Nc3nc(Nc4cccc(S(N)(=O)=O)c4)ncc3F)ccc12` [IX-12, N2-(3-Aminosulfonylphenyl)-N4-(3-cyanomethyl-1H-indol-6-yl)-5-fluoro-2,4-pyrimidinediamine], the IC50 amounted to 3.48 µM. On to `N#CCc1c[nH]c2ccc(Nc3nc(Nc4cccc(S(N)(=O)=O)c4)ncc3F)cc12` [IX-13, N2-(3-Aminosulfonylphenyl)-N4-(3-cyanomethyl-1H-indol-5-yl)-5-fluoro-2,4-pyrimidinediamine], for which the half-inhibitory concentration (IC50) is 1.85 µM. As for `Cc1ccc(Nc2ncc(F)c(Nc3ccc4[nH]cc(CC#N)c4c3)n2)cc1S(N)(=O)=O` [IX-14, N2-(3-Aminosulfonyl-4-methylphenyl)-N4-(3-cyanomethyl-1H-indol-5-yl)-5-fluoro-2,4-pyrimidinediamine], the IC50 turned out to be 1.09 µM.

Consider `N#CCc1c[nH]c2c(Nc3nc(Nc4cccc(S(N)(=O)=O)c4)ncc3F)cccc12` [IX-15, N2-(3-Aminosulfonylphenyl)-N4-(3-cyanomethyl-1H-indol-7-yl)-5-fluoro-2,4-pyrimidinediamine], for which the 50% inhibitory concentration (IC50) stood at 5.36 µM.

As for `Cc1ccc(Nc2ncc(F)c(Nc3cccc4c(CC#N)c[nH]c34)n2)cc1S(N)(=O)=O` [IX-16, N2-(3-Aminosulfonyl-4-methylphenyl)-N4-(3-cyanomethyl-1H-indol-7-yl)-5-fluoro-2,4-pyrimidinediamine], the IC50 was 2.51 µM.

On to `NS(=O)(=O)c1cccc(Nc2ncc(F)c(Nc3ccc(C(=O)N4CCSCC4)cc3)n2)c1` [IX-34, N2-(3-Aminosulfonylphenyl)-5-fluoro-N4-[4-(4-thiomorpholinyl)carbonylphenyl]-2,4-pyrimidinediamine], for which the IC50 was found to be 3.95 µM. Take `Cc1ccc(Nc2ncc(F)c(Nc3ccc(C(=O)N4CCSCC4)cc3)n2)cc1S(N)(=O)=O` [IX-35, N2-(3-Aminosulfonyl-4-methylphenyl)-5-fluoro-N4-[4-(4-thiomorpholinyl)carbonylphenyl]-2,4-pyrimidinediamine]: the IC50 came to 2.1 µM.

Turning to `COc1cc(Nc2nc(Nc3ccc(C)c(S(N)(=O)=O)c3)ncc2F)ccc1Cl` [VI-5, N2-(3-Aminosulfonyl-4-methylphenyl)-N4-(4-chloro-3-methoxyphenyl)-5-fluoro-2,4-pyrimidinediamine], the IC50 came to 1.39 µM. On to `Cc1ccc(Nc2ncc(F)c(Nc3ccc(Cl)c(Cl)c3)n2)cc1S(N)(=O)=O` [VI-6, N2-(3-Aminosulfonyl-4-methylphenyl)-N4-(3,4-dichlorophenyl)-5-fluoro-2,4-pyrimidinediamine], for which the IC50 was 7.7 µM. Turning to `COc1cc(Nc2nc(Nc3ccc(Cl)c(S(N)(=O)=O)c3)ncc2F)ccc1Cl` [VI-11, N2-(3-Aminosulfonyl-4-chlorophenyl)-N4-(4-chloro-3-methoxyphenyl)-5-fluoro-2,4-pyrimidinediamine], the IC50 came to 7.14 µM.

For `COc1ccc(Nc2nc(Nc3cc(Cl)c(C)c(S(N)(=O)=O)c3)ncc2F)cc1Cl` [VI-13, N2-(3-Aminosulfonyl-5-chloro-4-methylphenyl)-N4-(3-chloro-4-methoxyphenyl)-5-fluoro-2,4-pyrimidinediamine], the IC50 amounted to 1.39 µM. Turning to `COc1ccc(Nc2nc(Nc3cc(C)c(F)c(S(N)(=O)=O)c3)ncc2F)cc1Cl` [VI-15, N2-(3-Aminosulfonyl-4-fluoro-5-methylphenyl)-N4-(3-chloro-4-methoxyphenyl)-5-fluoro-2,4-pyrimidinediamine], the IC50 is 0.767 µM.

Turning to `COc1ccc(Nc2nc(Nc3cc(C)c(Cl)c(S(N)(=O)=O)c3)ncc2F)cc1Cl` [VI-17, N2-(3-Aminosulfonyl-4-chloro-5-methylphenyl)-N4-(3-chloro-4-methoxyphenyl)-5-fluoro-2,4-pyrimidinediamine], the IC50 was 0.454 µM. In the case of `Cc1cc(Nc2ncc(F)c(Nc3ccc(OC(F)(F)F)c(Cl)c3)n2)cc(S(N)(=O)=O)c1Cl` [VI-18, N2-(3-Aminosulfonyl-4-chloro-5-methylphenyl)-N4-(3-chloro-4-trifluoromethoxyphenyl)-5-fluoro-2,4-pyrimidinediamine], the IC50 worked out at 6.06 µM. `COc1ccc(Nc2nc(Nc3cccc(S(N)(=O)=O)c3)ncc2Br)cc1Cl` [VI-26, N2-(3-aminosulfonylphenyl)-5-bromo-N4-(3-chloro-4-methoxyphenyl)-2,4-pyrimidinediamine]: the IC50 was found to be 0.257 µM. For `CNC(=O)OCc1cccc(Nc2nc(Nc3ccc(C)c(S(N)(=O)=O)c3)ncc2F)c1` [VI-49, N2-(3-Aminosulfonyl-4-methylphenyl)-5-fluoro-N4-[3-(methylaminocarbonyloxymethyl)phenyl]-2,4-pyrimidinediamine], the IC50 worked out at 2.1 µM. As to `Cc1ccc(Nc2ncc(F)c(Nc3ccc(C(F)(F)F)cc3)n2)cc1S(N)(=O)=O` [VI-50, N2-(3-Aminosulfonyl-4-methylphenyl)-5-fluoro-N4-(4-trifluoromethylphenyl)-2,4-pyrimidinediamine], the IC50 was found to be 1.88 µM.

As for `NS(=O)(=O)c1cccc(Nc2ncc(F)c(Nc3ccc(C(F)(F)F)cc3)n2)c1` [VI-51, N2-(3-Aminosulfonylphenyl)-5-fluoro-N4-(4-trifluoromethylphenyl)-2,4-pyrimidinediamine], the IC50 turned out to be 2.13 µM.

For the molecule `Cc1ccc(Nc2ncc(F)c(Nc3ccc(CO)cc3)n2)cc1S(N)(=O)=O` [VI-52, N2-(3-Aminosulfonyl-4-methylphenyl)-5-fluoro-N4-(4-hydroxymethylphenyl)-2,4-pyrimidinediamine], the IC50 amounted to 1.74 µM. Turning to `C#CCOc1ccc(Nc2nc(Nc3ccc(C)c(S(N)(=O)=O)c3)ncc2F)cc1` [VI-53, N2-(3-Aminosulfonyl-4-methylphenyl)-5-fluoro-N4-[4-(prop-2-ynyloxy)phenyl]-2,4-pyrimidinediamine], the 50% inhibitory concentration (IC50) turned out to be 0.565 µM. To `C=Cc1ccc(Nc2nc(Nc3ccc(C)c(S(N)(=O)=O)c3)ncc2F)cc1` [VI-54, N2-(3-Aminosulfonyl-4-methylphenyl)-5-fluoro-N4-(4-vinylphenyl)-2,4-pyrimidinediamine] belongs 1.62 µM; to `C#CCOc1ccc(Nc2nc(Nc3ccc(Cl)c(S(N)(=O)=O)c3)ncc2F)cc1` [VI-55, N2-(3-Aminosulfonyl-4-chlorophenyl)-5-fluoro-N4-[4-(prop-2-ynyloxy)phenyl]-2,4-pyrimidinediamine], 1.37 µM. Turning to `C#CCOc1ccc(Nc2nc(Nc3ccc(C)c(S(N)(=O)=O)c3)ncc2F)cc1F` [VI-60, N2-(3-Aminosulfonyl-4-methylphenyl)-5-fluoro-N4-[3-fluoro-4-(prop-2-ynyloxy)phenyl]-2,4-pyrimidinediamine], the IC50 amounted to 0.41 µM. Consider `CC#CCOc1ccc(Nc2nc(Nc3ccc(C)c(S(N)(=O)=O)c3)ncc2F)cc1` [VI-61, N2-(3-Aminosulfonyl-4-methylphenyl)-N4-[4-(but-2-ynyloxy)phenyl]-5-fluoro-2,4-pyrimidinediamine], for which the IC50 stood at 0.367 µM. Consider `C#CCOc1ccc(Nc2nc(Nc3ccc(C(C)C)c(S(N)(=O)=O)c3)ncc2F)cc1` [VI-63, N2-[3-Aminosulfonyl-4-(2-propyl)phenyl]-5-fluoro-N4-[4-(prop-2-ynyloxy)phenyl]-2,4-pyrimidinediamine], for which the IC50 worked out at 1.74 µM. With `C#CCNc1ccc(Nc2nc(Nc3ccc(C)c(S(N)(=O)=O)c3)ncc2F)cc1` [VI-65, N2-(3-Aminosulfonyl-4-methylphenyl)-5-fluoro-N4-[4-(prop-2-ynylamino)phenyl]-2,4-pyrimidinediamine], the IC50 turned out to be 0.964 µM. For the molecule `C#CCOc1ccc(Nc2nc(Nc3ccc(C)c(S(=O)(=O)NC)c3)ncc2F)cc1` [VI-68, 5-Fluoro-N2-(4-methyl-3-methylaminosulfonylphenyl)-N4-[4-(prop-2-ynyloxy)phenyl]-2,4-pyrimidinediamine], the IC50 was determined as 1.81 µM.

Consider `C#CCOc1ccc(Nc2nc(Nc3ccc(N4CCN(C)CC4)c(S(N)(=O)=O)c3)ncc2F)cc1` [VI-70, N2-[3-Aminosulfonyl-4-(1-methylpiperazin-4-yl)phenyl]-5-fluoro-N4-[4-(prop-2-ynyloxy)phenyl]-2,4-pyrimidinediamine], for which the IC50 was 0.657 µM. For the molecule `C#CCOC(=O)NCc1ccc(Nc2nc(Nc3cccc(S(N)(=O)=O)c3)ncc2F)cc1` [VI-74, N2-(3-Aminosulfonylphenyl)-5-fluoro-N4-{4-[(prop-2-ynyloxy)carbonylaminomethyl]phenyl}-2,4-pyrimidinediamine], the half-inhibitory concentration (IC50) was found to be 3.85 µM. For `NS(=O)(=O)c1cccc(Nc2ncc(F)c(Nc3ccc(CCCF)cc3)n2)c1` [VI-83, N2-(3-Aminosulfonylphenyl)-5-fluoro-N4-[4-(3-fluoropropyl)phenyl]-2,4-pyrimidinediamine], the IC50 is 0.535 µM. As to `NS(=O)(=O)c1cccc(Nc2ncc(F)c(Nc3ccc(CCCO)cc3)n2)c1` [VI-86, N2-(3-Aminosulfonylphenyl)-5-fluoro-N4-[4-(3-hydroxypropyl)phenyl]-2,4-pyrimidinediamine], the IC50 was determined as 0.487 µM. Consider `NS(=O)(=O)c1cccc(Nc2ncc(F)c(Nc3ccc(CCCCO)cc3)n2)c1` [VI-89, N2-(3-Aminosulfonylphenyl)-5-fluoro-N4-[4-(4-hydroxybutyl)phenyl]-2,4-pyrimidinediamine], for which the IC50 stood at 2.04 µM.

As usually defined, the IC50 is the concentration that gives 50% inhibition.
